From patent US20080227799A1, “CXCR4 Antagonists Including Heteroatoms for the Treatment of Medical Disorders” (priority 2006, published 2008)
Entries after “also recorded” stand apart in the source; their conditions may differ.

Columns and labels:
[1] = test system: CXCR4/SDF-1-mediated Erk1/2 phosphorylation; test: SDF-1-stimulated Erk1/2 phosphorylation; format: cell-based; details: data not shown
Description: (§1) CXCR4/SDF-1 interaction activates PI3K/Akt and Ras/Raf/MEK/Erk pathways in a Gαi protein (PTX-sensitive)-dependent manner. Experiments were conducted to determine the effect of blocking CXCR4/SDF-1 interaction by either TN14003 or AMD3100 at different concentrations (0, 0.01, 0.1, 1, 10, 100, 1000 nM) on phosphorylations of Akt and Erk1/2 signaling. Incubating cells with 100 ng/ml of SDF-1 for 30 minutes activated Akt. […] However, the increase in Erk1/2 phosphorylation by SDF-1 was not significant as the increase in Akt phosphorylation.

CXCR4 [2] = target: T1, CXCR4 (Homo sapiens, UniProt P61073); test: Competition assay using biotin-labeled TN14003 and streptavidin-conjugated rhodamine on tumor cells; format: binding
T1 construct: endogenous in cells; probably MDA-MB-231
Excerpt: In a separate embodiment, a process for screening potential drug candidates is provided. The process includes providing a labeled peptide-based CXCR4 antagonist that has a detectable signal when bound to a CXCR4 receptor; contacting a CXCR4 receptor with at least one test molecule at a known concentration to form a test sample; contacting the test sample with the peptide-based antagonist; separately, contacting the peptide-based antagonist to a sample not including any test molecule to form a control sample; and comparing the signal from the test sample to the signal from the control sample. In a specific subembodiment, the peptide-based antagonist is derived from TN14003 (described in PCT Publication No. WO 04/087068 to Emory University). In a further subembodiment, the antagonist is labeled with a biotin molecule and the signal is elicited when the biotin-labeled antagonist is contacted with a streptavadin-conjugated signal molecule.
The peptide-based antagonist is typically a molecule with high affinity for the receptor. In one embodiment, the molecule is derived from the “T140” peptide antagonists. In a specific embodiment, the antagonist is TN14003 (described in PCT Publication No. WO 04/087068 to Emory University). The receptor is typically expressed in a cell line. The process can be performed as a dose-response curve. In this embodiment, the test compound is incubated with the receptor at varying concentrations and the signal elicited after binding of the labeled antagonist is measured and compared to control, as well as to each other.
Using biotin-labeled TN14003 along with streptavidin-conjugated rhodamine allowed a determination of the binding efficiency of these chemicals to the SDF-1 binding site of CXCR4 on tumor cells and compared it to AMD3100-SDF-1 interactions (FIG. 7). […] Cells were pre-incubated with different concentrations of AMD3100. […] Therefore, one of these compounds, WZZL811S, was selected to study its therapeutic potential based on potency and low toxicity to cells (FIG. 9).

[3] = withdrawn from clinical trials; cited from earlier work
CXCR4 [4] = test: CXCR4 protein levels after treating cells; format: cell-based; details: treated cells
[5] = test system: CXCR4/SDF-1-mediated Akt activation; test: SDF-1-stimulated Akt phosphorylation in MDA-MB-231 cells (western blot); format: cell-based; details: for concentration blocking Akt activation: 100 ng/ml SDF-1, 30 minutes, 0-1000 nM tested; for SDF-1-stimulated phosphorylation of Akt: MDA-MB-231 cells, 100 ng/ml SDF-1, 30 min, dose-dependent
Description: as §1

[6] = test system: human umbilical vein endothelial cells (HUVECs); test: Endothelial capillary tube formation assay; format: cell-based; details: 100 nM; SDF-1 100 ng/ml; 18 hours
Description: The anti-angiogenic effect of test compounds was measured by analyzing endothelial cell growth and tube formation. The angiogenic effect of SDF-1 (100 ng/ml) on capillary formation by human umbilical vein endothelial cells (HUVECs) was examined in vitro using Matrigel-coated 24-well plates precoated with Matrigel and incubated for 18 hours. The angiogenic effect of SDF-1 was inhibited by either 100 nM TN14003 (peptide-based CXCR4 antagonist) or WZZL811S treatment (FIG. 14a, graph FIG. 14b).

metastatic 686LN cells = test: 686LN head & neck cancer metastasis model, tail vein injection, FDG-PET; format: in vivo; details: 20 mg/mouse/twice weekly; thirty days
Description: The metastatic 686LN cells were injected intravenously through the tail vein to generate experimental animal models for Head & Neck cancer metastasis, modulated via CXCR4. […] These 3-D projection images show lung metastases well (bone mets and liver mets were apparent in axial section images of mice in control groups, data not shown).

MDA-MB-231 cells [7] = test: Cell viability of MDA-MB-231 cells; format: cell-based; details: 100 μM (the highest concentration tested)
MDA-MB-231 cells [8] = test: Matrigel invasion assay, CXCR4/SDF-1-mediated invasion; format: cell-based; details: 2 nM
Description: Lowering CXCR4 mRNA levels by siRNAs inhibited CXCR4/SDF-1-mediated invasion as measured by a matrigel invasion assay. The CXCR4 ligand, SDF-1 (400 ng/ml) was added to the lower chamber to attract CXCR4-positive breast cancer cells to migrate through the matrigel. The invasion of MDA-MB-231 cells transfected with siRNA1 decreased to 39±4% of the control cells, 51±8% with siRNA2, and only 16±6% with both siRNA1+2 (FIG. 3A).
WZZL811S was tested in a matrigel invasion assay to determine whether it can inhibit CXCR4/SDF-1-mediated invasion.

SHIV = SHIV infection of model cells, p27 antigen capture; format: cell-based; details: 0.1, 1, 10 or 100 nM drug prior to infection
Description: The effect of the test compounds on HIV infection in model cells was analyzed by p27 antigen capture using SHIV infected cells. Cells were incubated with 0, 0.1, 1, 10 or 100 nM drug prior to infection with SHIV. Viral titer was measured after infection by analyzing levels of p27 antigen. […] The inhibition was measurable at 2 days, and continued to 5 day incubations.

HIV = details: MT-4 cells; read-out: concentration required for 50% protection of HIV-induced cytopathogenicity; cited from earlier work
CXCR4 [9] = target: T1, CXCR4; test: Immunofluorescence of biotin-labeled TN14003 on MDA-MB-231 cells preincubated with SDF-1; format: binding; details: 400 ng/ml SDF-1, 10 min
Description: Initially, experiments were performed to verify that TN14003 binds to the predicted SDF-1 binding sites on the CXCR4 receptor. In these studies, MDA-MB-231 cells were incubated in the absence (FIG. 1A, B) or presence (FIG. 1A, C) of 400 ng/ml of SDF-1α for 10 min, and then fixed in ice-cold acetone. Immunofluorescence of the biotin-labeled TN14003 was negative in both membrane and cytosol in the cells pretreated with SDF-1α for 10 min (FIG. 1A, C).

MT-4 cells = details: cited from earlier work

T1 sequence (P61073 whole entry): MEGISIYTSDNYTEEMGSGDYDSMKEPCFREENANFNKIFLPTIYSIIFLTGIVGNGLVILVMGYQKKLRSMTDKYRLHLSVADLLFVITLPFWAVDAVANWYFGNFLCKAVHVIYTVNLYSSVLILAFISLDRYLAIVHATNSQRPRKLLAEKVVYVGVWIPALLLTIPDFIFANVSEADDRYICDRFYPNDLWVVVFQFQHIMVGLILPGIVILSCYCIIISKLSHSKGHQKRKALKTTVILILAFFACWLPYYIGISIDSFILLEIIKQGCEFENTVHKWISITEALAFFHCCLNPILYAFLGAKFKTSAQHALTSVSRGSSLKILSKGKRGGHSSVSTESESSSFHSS

Molecule: C1=CC(CN2CCCNCCNCCCNCC2)CC=C1CN1CCCNCCNCCCNCC1 (stereo not shown) [AMD3100]
- concentration attenuating Erk1/2 phosphorylation [1]: 100 nM
- concentration needed to compete against biotin-labeled TN14003 (CXCR4 [2]; cells pre-incubated with different concentrations): 10 µM
- side effect in clinical study [3]: cardiac-related side effect
- effect on CXCR4 protein levels (CXCR4 [4]): did not affect
- concentration blocking Akt activation [5]: a few nano molar
- SDF-1-stimulated phosphorylation of Akt [5]: blocked

Molecule: c1ccc(NCc2ccc(CNc3ccccn3)cc2)nc1 [WZZL811S]
- angiogenic effect of SDF-1 on capillary tube formation [6]: inhibited
- IC50 (CXCR4 [2]; cells pre-incubated with various concentrations, read-out: IC50, detection of CXCR4 by biotin-labeled TN14003 on pre-incubated cells): < 1000 pM
- binding affinity to the ligand-binding site of CXCR4 on tumor cells (CXCR4 [2]; competition with biotin-labeled TN14003): nano-molar concentration
- efficacy relative to TN14003 (metastatic 686LN cells): 80%
- cell viability of MDA-MB-231 cells (MDA-MB-231 cells [7]): did not decrease cell viability
- CXCR4/SDF-1 mediated invasion of MDA-MB-231 (MDA-MB-231 cells [8]): as potent as TN14003; also recorded: blocked
- SHIV infection (p27 antigen levels) (SHIV): inhibited SHIV infection at all concentrations tested
- SDF-1-stimulated phosphorylation of Akt [5]: blocked

Molecule: TN14003
- angiogenic effect of SDF-1 on capillary tube formation [6]: inhibited
- EC50 (HIV): 600 pM
- concentration attenuating Erk1/2 phosphorylation (in words) [1]: sub-nano molar concentration
- metastasis of 686LN cells to organs (FDG-PET) (metastatic 686LN cells): failed to metastasize to any organs
- CXCR4/SDF-1 mediated invasion of MDA-MB-231 (MDA-MB-231 cells [8]): blocked
- binding of biotin-labeled TN14003 to CXCR4 after SDF-1 preincubation (CXCR4 [9]): negative; also recorded: blocked
- effect on CXCR4 protein levels (CXCR4 [4]): did not affect
- concentration blocking Akt activation [5]: sub-nano molar concentration
- SDF-1-stimulated phosphorylation of Akt [5]: blocked
- concentration leading to 50% toxicity (MT-4 cells): 410 µM

Molecule: c1cnc(NCc2ccc(CNc3ncccn3)cc2)nc1 [WZ40]
- SHIV infection (p27 antigen levels) (SHIV): inhibited SHIV infection at all concentrations tested
